Results: paper PMC11394742, “Discovery of Indole–Thiourea Derivatives as Tyrosinase Inhibitors: Synthesis, Biological Evaluation, Kinetic Studies, and In Silico Analysis” (International Journal of Molecular Sciences, 2024)
Where “and” joins values, the source holds several entries; their conditions need not be identical. Equal values may be shown once.

Legend:
[1] = system: B16F10 melanoma cells; details: cited from earlier work
[2] = system: tyrosinase; details: natural product; cited from earlier work
[3] = biological target: T1, mushroom tyrosinase (Agaricus bisporus, UniProt C7FF04); assay: Tyrosinase inhibition assay; format: biochemical; details: L-tyrosine substrate, 37 °C 10 min, absorbance 490 nm; mean ± SEM
T1 construct: purchased Sigma Chemicals (St. Louis, MO, USA)
Description: In the enzymatic assay, a reaction mixture was prepared containing 0.1 M potassium phosphate buffer (pH 6.8), 2 mM L-tyrosine, and 2500 units of tyrosinase. Samples at various concentrations were dispensed as 20 µL aliquots into a 96-well plate. Each well received 130 µL of substrate solution (buffer and L-tyrosine), followed by 5 µL of tyrosinase and 45 µL of buffer solution.

[4] = DPPH free radical-scavenging assay; details: 0.2 mM DPPH in EtOH, 15 min, room temperature, 515 nm; read-out: SC50 ± SD (DPPH radical scavenging)
Description: The DPPH radical-scavenging activity was evaluated using Blois’ method. A 0.2 mM solution of DPPH in ethanol (EtOH) was prepared as the working reagent. Each sample (20 μL) was introduced into a 96-well plate, followed by the addition of 180 μL of the DPPH solution. […] The SC50 value, representing the concentration required to scavenge 50% of the DPPH radicals, was determined for each sample. Each measurement was performed in triplicate, and the mean value was reported. Ascorbic acid served as the positive control throughout the experiment.

[5] = Stability in aqueous solution (HPLC main peak area); format: physicochemical; details: room temperature, 275 nm
Description: Table S1. Gradient elution of the mobile phase for the synthetic compounds using HPLC.
The mobile phase consisted of Solution A (0.1% acetic acid in water) and Solvent B
(acetonitrile), with gradient elution employed throughout the analysis. The flow rate was
Time Solution (A) % Solution (B) %
Table S2. The stability of the synthesized compounds in aqueous solution.
Each compound (2.0 mg) was dissolved in an appropriate volume of water to achieve
an approximate concentration of 1-2 mg/mL. The solutions were then subjected to
ultrasonic treatment, filtered, and analyzed. During stability testing, varying degrees of
To facilitate analysis, these
samples were reconstituted with additional water or treated ultrasonically, filtered, and
absorption at approximately 275 nm, which was selected for detection. The integration
method employed was based on the minimum area approach to accurately determine the
retention time (min) and main peak area (%) of all synthesized compounds. The prepared
samples were stored at room temperature, and their stability in aqueous solution was
evaluated at 0, 2, 4 days, and 2 months using the aforementioned analytical method.
Compounds 0 day 2 day 4 days 2 months RT Area RT Area RT Area RT Area

[6] = biological target: T2, mTYR (Agaricus bisporus, UniProt C7FF04); assay: Kinetic mechanism analysis (Lineweaver–Burk plots); format: biochemical, mushroom
T2 construct: purchased Sigma Chemicals (St. Louis, MO, USA)
Description: Due to the potent inhibition of mushroom tyrosinase by compound 4b, kinetic studies were conducted using Lineweaver–Burk double reciprocal plots to elucidate its inhibitory mechanisms. […] concentrations (0 μM, 3 μM, 6 μM, and 12 μM) of the indole derivative 4b in the presence of varying L-tyrosine concentrations (0.1, 0.2, 0.4, 0.6, 0.8, 1 mM) were employed for the kinetic analyses. The Lineweaver–Burk plots generated four distinct lines with different slopes corresponding to each concentration of the derivative. […] Specifically, the KM values were 1.515, 7.846, 15.740, and 23.586 mM at 0, 3, 6, and 12 μM of 4b, respectively.
The kinetic experiment was intended to elucidate the inhibitory behavior of compound 4b against tyrosinase. Four different doses of 4b (0, 3, 6, and 12 µM) were investigated to characterize its inhibition pattern with respect to tyrosinase activity. Various concentrations of L-tyrosine substrate ranging from 0.1 to 1 mM were employed across all experiments. The initial incubation time and reading period mirrored those outlined in the anti-tyrosinase inhibition method. The maximum initial velocity (V₀) was determined from the linear phase of absorbance measurements taken over 5 min following the addition of the enzyme solution. The inhibition mode was further delineated using a Lineweaver–Burk plot, where the reciprocal of velocities (1/V) was plotted against the reciprocal of substrate concentrations utilized.

T2 sequence (C7FF04 1-392): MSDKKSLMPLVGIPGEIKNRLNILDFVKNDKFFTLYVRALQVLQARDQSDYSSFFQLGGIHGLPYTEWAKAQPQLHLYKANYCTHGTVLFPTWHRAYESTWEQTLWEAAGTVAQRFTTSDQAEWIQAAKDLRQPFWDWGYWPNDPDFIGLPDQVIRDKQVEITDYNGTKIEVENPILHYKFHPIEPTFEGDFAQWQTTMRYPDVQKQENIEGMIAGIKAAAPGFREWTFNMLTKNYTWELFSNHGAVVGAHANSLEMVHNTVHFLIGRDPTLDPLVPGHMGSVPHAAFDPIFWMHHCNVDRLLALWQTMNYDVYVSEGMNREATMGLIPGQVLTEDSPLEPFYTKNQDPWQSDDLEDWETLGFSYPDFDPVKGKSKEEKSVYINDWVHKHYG
T1 sequence (C7FF04 1-392): as above

IC50 [3] [µM]	EC50 [4] [µM]	Main peak area (HPLC), stability in aqueous solution ([5]; 0 day) [%]	Main peak area (HPLC), stability in aqueous solution ([5]; 2 months)	Main peak area (HPLC), stability in aqueous solution ([5]; 2 day) [%]	Main peak area (HPLC), stability in aqueous solution ([5]; 4 days) [%]	melting point [°C]	Inhibition mode ([6]; Lineweaver–Burk plots, versus L-tyrosine)	Ki ([6]; at 6 μM of 4b) [µM]	Ki ([6]; at 12 μM of 4b) [µM]	Vmax ([6]; consistent across 0-12 μM 4b, L-tyrosine 0.1-1 mM) [mM/min]	SMILES	Effect on B16F10 melanoma cells [1]	Tyrosinase inhibition activity [2]
127 ± 2.85	> 1000	97.80	92.18%	96.99	96.45	188 to 190					CCn1cc(/C=N/NC(N)=S)c2ccccc21 [Compound 4f, (E)-2-((1-ethyl-1H-indol-3-yl)methylene)hydrazine-1-carbothioamide]		
7.9 ± 4.07		97.61	91.27%	95.84	95.76						NC(=S)N/N=C/c1c[nH]c2ccccc12 [Compound 4a, (E)-2-((1H-indol-3-yl)methylene)hydrazine-1-carbothioamide]		
5.9 ± 2.47	544.3 ± 1.5	97.21	91.69%	97.10	97.07		competitive	0.0568	0.0206	0.0135	NC(=S)N/N=C/c1c[nH]c2ccc(F)cc12 [Compound 4b, (E)-2-((5-fluoro-1H-indol-3-yl)methylene)hydrazine-1-carbothioamide]		
43.3 ± 3.46	24.6 ± 3.7	96.00	94.13%	95.85	95.32	261 to 263					NC(=S)N/N=C/c1c[nH]c2ccc(O)cc12 [Compound 4k, (E)-2-((5-hydroxy-1H-indol-3-yl)methylene)hydrazine-1-carbothioamide]		
163 ± 3.81	340.2 ± 3.1	96.18	90.15%	95.87	95.83	203 to 205					COc1ccc2c(c1)c(/C=N/NC(N)=S)cn2C [Compound 4h, (E)-2-((5-methoxy-1-methyl-1H-indol-3-yl)methylene)hydrazine-1-carbothioamide]		
13.2 ± 1.68	659.2 ± 0.5	96.24	91.89%	96.04	95.74	212 to 214					NC(=S)N/N=C/c1c[nH]c2ccc(Cl)cc12 [Compound 4c, (E)-2-((5-chloro-1H-indol-3-yl)methylene)hydrazine-1-carbothioamide]		
14.9 ± 2.86	769 ± 2.6	97.79	91.28%	97.41	96.80	215 to 217					NC(=S)N/N=C/c1c[nH]c2ccc(Br)cc12 [Compound 4d, (E)-2-((5-bromo-1H-indol-3-yl)methylene)hydrazine-1-carbothioamide]		
103 ± 2.72	275.7 ± 2.7	97.37	90.86%	97.13	96.75	247 to 249					COC(=O)c1ccc2[nH]cc(/C=N/NC(N)=S)c2c1 [Compound 4j, Methyl(E)-3-((2-carbamothioylhydrazineylidene)methyl)-1H-indole-5-carboxylate]		
155.5 ± 1.07	493.5 ± 0.7	97.47	95.20%	94.12	94.58	199 to 201					Cn1cc(/C=N/NC(N)=S)c2ccccc21 [Compound 4g, (E)-2-((1-methyl-1H-indol-3-yl)methylene)hydrazine-1-carbothioamide]		
30.1 ± 1.77	603.4 ± 1	98.00	94.97%	97.87	96.87						COc1ccc2[nH]cc(/C=N/NC(N)=S)c2c1 [Compound 4e, (E)-2-((5-methoxy-1H-indol-3-yl)methylene)hydrazine-1-carbothioamide]		
46.3 ± 3.11	> 1000	90.17	65% and 65.06%	88.52	88.22	220 to 222					Cn1cc(/C=N/NC(N)=S)c2cc(Br)ccc21 [Compound 4i, (E)-2-((5-bromo-1-methyl-1H-indol-3-yl)methylene)hydrazine-1-carbothioamide]		

The next lines start with the molecule.

SMILES	IC50 [3] [µM]	EC50 [4] [µM]	Main peak area (HPLC), stability in aqueous solution ([5]; 0 day) [%]	Main peak area (HPLC), stability in aqueous solution ([5]; 2 months)	Main peak area (HPLC), stability in aqueous solution ([5]; 2 day) [%]	Main peak area (HPLC), stability in aqueous solution ([5]; 4 days) [%]	melting point [°C]	Inhibition mode ([6]; Lineweaver–Burk plots, versus L-tyrosine)	Ki ([6]; at 6 μM of 4b) [µM]	Ki ([6]; at 12 μM of 4b) [µM]	Vmax ([6]; consistent across 0-12 μM 4b, L-tyrosine 0.1-1 mM) [mM/min]	Effect on B16F10 melanoma cells [1]	Tyrosinase inhibition activity [2]
O=C(O)Cc1c[nH]c2ccccc12 [indole-3-acetic acid]												inhibitory effects	
OCCc1c[nH]c2ccccc12 [indole-3-ethanol]													significant tyrosinase inhibition activity
O=C(O)c1c[nH]c2ccccc12 [indole-3-carboxylic acid]												inhibitory effects	
O=Cc1c[nH]c2ccccc12 [indole-3-carbaldehyde]													significant tyrosinase inhibition activity
O=C1O[C@H]([C@@H](O)CO)C(O)=C1O [Ascorbic acid, reference compound]		37.9 ± 0.3											
